{
  "source": "PubChem BioAssay AID2060508",
  "about": "(Molecular Pharmacology Branch, DTP, NCI, 2025)",
  "data": [
    {"test_system": "454973-116-R2-J3-PDC spheroids, viability, % test/control", "assay": "Anticancer human tumor 454973-116-R2-J3-PDC patient-derived pancreatic carcinoma cell line growth inhibition [GQUAD]", "conditions": "second compound 1 µM; first compound 0.1 µM; stronger effect = lower value; spheroids with HUVEC and MSC", "procedure,_shortened": "(§1)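 Multi-cell-type spheroids of tumor cells with HUVEC and mesenchymal stem cells, treated with drug combinations. Concentrations descend in half-log steps from near clinical Cmax, or from 10 microM where Cmax is unknown; viability read-out.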", "units": {"viability, T/C": "%"}, "values": [
      {"smiles": "Cc1cccc(N(C)C(=O)C2C(O)CCN2c2nc(C)cc(C(F)(F)F)c2C#N)c1", "note": "(stereo unspecified) + CN(C)c1ccc(Nc2c3ccc(NC(=O)CCN4CCCC4)cc3nc3cc(NC(=O)CCN4CCCC4)ccc23)cc1", "viability, T/C": 99.8},
      {"smiles": "O=C(c1cc(Cc2n[nH]c(=O)c3ccccc23)ccc1F)N1CCN(C(=O)C2CC2)CC1", "note": "+ CN(C)c1ccc(Nc2c3ccc(NC(=O)CCN4CCCC4)cc3nc3cc(NC(=O)CCN4CCCC4)ccc23)cc1", "viability, T/C": 91.9}
    ]},
    {"test_system": "454973-116-R2-J3-PDC spheroids, viability, % test/control", "assay": "Anticancer human tumor 454973-116-R2-J3-PDC cell line growth inhibition [GQUAD];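 further: spheroids exposed to compounds for seven days; 100% = DMSO vehicle control viability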", "conditions": "second compound 1 µM; first compound 0.316 µM; stronger effect = lower value; spheroids with HUVEC and MSC", "procedure,_shortened": "as §1", "units": {"viability, T/C": "%"}, "values": [
      {"smiles": "C=CC(=O)N1CCN(c2nc(=O)n(-c3c(C)ccnc3C(C)C)c3nc(-c4c(O)cccc4F)c(F)cc23)C(C)C1", "note": "(stereo unspecified) + CN(C)c1ccc(Nc2c3ccc(NC(=O)CCN4CCCC4)cc3nc3cc(NC(=O)CCN4CCCC4)ccc23)cc1", "viability, T/C": 104},
      {"smiles": "CC1COCCN1c1cc(C2(O)CC3CCC(C2)O3)c2cnn(-c3ccn[nH]3)c2n1", "note": "(stereo unspecified) + CN(C)c1ccc(Nc2c3ccc(NC(=O)CCN4CCCC4)cc3nc3cc(NC(=O)CCN4CCCC4)ccc23)cc1", "viability, T/C": 33.1},
      {"smiles": "Cc1cccc(N(C)C(=O)C2C(O)CCN2c2nc(C)cc(C(F)(F)F)c2C#N)c1", "note": "(stereo unspecified) + CN(C)c1ccc(Nc2c3ccc(NC(=O)CCN4CCCC4)cc3nc3cc(NC(=O)CCN4CCCC4)ccc23)cc1", "viability, T/C": 92},
      {"smiles": "Cn1ncnc1[C@H]1c2n[nH]c(=O)c3cc(F)cc(c23)N[C@@H]1c1ccc(F)cc1", "note": "+ CN(C)c1ccc(Nc2c3ccc(NC(=O)CCN4CCCC4)cc3nc3cc(NC(=O)CCN4CCCC4)ccc23)cc1", "viability, T/C": 64.3},
      {"smiles": "O=C(c1cc(Cc2n[nH]c(=O)c3ccccc23)ccc1F)N1CCN(C(=O)C2CC2)CC1", "note": "+ CN(C)c1ccc(Nc2c3ccc(NC(=O)CCN4CCCC4)cc3nc3cc(NC(=O)CCN4CCCC4)ccc23)cc1", "viability, T/C": 98.2}
    ]},
    {"test_system": "454973-116-R2-J3-PDC spheroids, viability, % test/control", "assay": "Anticancer human tumor 454973-116-R2-J3-PDC cell line growth inhibition [GQUAD];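 further: spheroids exposed to compounds for seven days; 100% = DMSO vehicle control viability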", "conditions": "second compound 1 µM; first compound 1 µM; stronger effect = lower value; spheroids with HUVEC and MSC", "procedure,_shortened": "as §1", "units": {"viability, T/C": "%"}, "values": [
      {"smiles": "C=CC(=O)N1CCN(c2nc(=O)n(-c3c(C)ccnc3C(C)C)c3nc(-c4c(O)cccc4F)c(F)cc23)C(C)C1", "note": "(stereo unspecified) + CN(C)c1ccc(Nc2c3ccc(NC(=O)CCN4CCCC4)cc3nc3cc(NC(=O)CCN4CCCC4)ccc23)cc1", "viability, T/C": 86.7},
      {"smiles": "CC1COCCN1c1cc(C2(O)CC3CCC(C2)O3)c2cnn(-c3ccn[nH]3)c2n1", "note": "(stereo unspecified) + CN(C)c1ccc(Nc2c3ccc(NC(=O)CCN4CCCC4)cc3nc3cc(NC(=O)CCN4CCCC4)ccc23)cc1", "viability, T/C": 19.5},
      {"smiles": "Cc1cccc(N(C)C(=O)C2C(O)CCN2c2nc(C)cc(C(F)(F)F)c2C#N)c1", "note": "(stereo unspecified) + CN(C)c1ccc(Nc2c3ccc(NC(=O)CCN4CCCC4)cc3nc3cc(NC(=O)CCN4CCCC4)ccc23)cc1", "viability, T/C": 77.8},
      {"smiles": "O=C(c1cc(Cc2n[nH]c(=O)c3ccccc23)ccc1F)N1CCN(C(=O)C2CC2)CC1", "note": "+ CN(C)c1ccc(Nc2c3ccc(NC(=O)CCN4CCCC4)cc3nc3cc(NC(=O)CCN4CCCC4)ccc23)cc1", "viability, T/C": 74.5}
    ]},
    {"test_system": "454973-116-R2-J3-PDC spheroids, viability, % test/control", "assay": "Anticancer human tumor 454973-116-R2-J3-PDC cell line growth inhibition [GQUAD];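 further: spheroids exposed to compounds for seven days; 100% = DMSO vehicle control viability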", "conditions": "second compound 1 µM; first compound 3.16 µM; stronger effect = lower value; spheroids with HUVEC and MSC", "procedure,_shortened": "as §1", "units": {"viability, T/C": "%"}, "values": [
      {"smiles": "C=CC(=O)N1CCN(c2nc(=O)n(-c3c(C)ccnc3C(C)C)c3nc(-c4c(O)cccc4F)c(F)cc23)C(C)C1", "note": "(stereo unspecified) + CN(C)c1ccc(Nc2c3ccc(NC(=O)CCN4CCCC4)cc3nc3cc(NC(=O)CCN4CCCC4)ccc23)cc1", "viability, T/C": 102},
      {"smiles": "CC1COCCN1c1cc(C2(O)CC3CCC(C2)O3)c2cnn(-c3ccn[nH]3)c2n1", "note": "(stereo unspecified) + CN(C)c1ccc(Nc2c3ccc(NC(=O)CCN4CCCC4)cc3nc3cc(NC(=O)CCN4CCCC4)ccc23)cc1", "viability, T/C": 20.1},
      {"smiles": "Cc1cccc(N(C)C(=O)C2C(O)CCN2c2nc(C)cc(C(F)(F)F)c2C#N)c1", "note": "(stereo unspecified) + CN(C)c1ccc(Nc2c3ccc(NC(=O)CCN4CCCC4)cc3nc3cc(NC(=O)CCN4CCCC4)ccc23)cc1", "viability, T/C": 92},
      {"smiles": "O=C(c1cc(Cc2n[nH]c(=O)c3ccccc23)ccc1F)N1CCN(C(=O)C2CC2)CC1", "note": "+ CN(C)c1ccc(Nc2c3ccc(NC(=O)CCN4CCCC4)cc3nc3cc(NC(=O)CCN4CCCC4)ccc23)cc1", "viability, T/C": 70.7}
    ]},
    {"test_system": "454973-116-R2-J3-PDC spheroids, viability, % test/control", "assay": "Anticancer human tumor 454973-116-R2-J3-PDC cell line growth inhibition [GQUAD];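 further: spheroids exposed to compounds for seven days; 100% = DMSO vehicle control viability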", "conditions": "second compound 1 µM; first compound 10 µM; stronger effect = lower value; spheroids with HUVEC and MSC", "procedure,_shortened": "as §1", "units": {"viability, T/C": "%"}, "values": [
      {"smiles": "C=CC(=O)N1CCN(c2nc(=O)n(-c3c(C)ccnc3C(C)C)c3nc(-c4c(O)cccc4F)c(F)cc23)C(C)C1", "note": "(stereo unspecified) + CN(C)c1ccc(Nc2c3ccc(NC(=O)CCN4CCCC4)cc3nc3cc(NC(=O)CCN4CCCC4)ccc23)cc1", "viability, T/C": 100},
      {"smiles": "CC1COCCN1c1cc(C2(O)CC3CCC(C2)O3)c2cnn(-c3ccn[nH]3)c2n1", "note": "(stereo unspecified) + CN(C)c1ccc(Nc2c3ccc(NC(=O)CCN4CCCC4)cc3nc3cc(NC(=O)CCN4CCCC4)ccc23)cc1", "viability, T/C": 15.5},
      {"smiles": "Cc1cccc(N(C)C(=O)C2C(O)CCN2c2nc(C)cc(C(F)(F)F)c2C#N)c1", "note": "(stereo unspecified) + CN(C)c1ccc(Nc2c3ccc(NC(=O)CCN4CCCC4)cc3nc3cc(NC(=O)CCN4CCCC4)ccc23)cc1", "viability, T/C": 100},
      {"smiles": "O=C(c1cc(Cc2n[nH]c(=O)c3ccccc23)ccc1F)N1CCN(C(=O)C2CC2)CC1", "note": "+ CN(C)c1ccc(Nc2c3ccc(NC(=O)CCN4CCCC4)cc3nc3cc(NC(=O)CCN4CCCC4)ccc23)cc1", "viability, T/C": 59.3}
    ]},
    {"test_system": "454973-116-R2-J3-PDC spheroids, viability, % test/control", "assay": "Anticancer human tumor 454973-116-R2-J3-PDC cell line growth inhibition [GQUAD]", "conditions": "second compound 3.16 µM; first compound 0.000999 µM; stronger effect = lower value; spheroids with HUVEC and MSC", "procedure,_shortened": "as §1", "units": {"viability, T/C": "%"}, "values": [
      {"smiles": "Cn1ncnc1[C@H]1c2n[nH]c(=O)c3cc(F)cc(c23)N[C@@H]1c1ccc(F)cc1", "note": "+ CN(C)c1ccc(Nc2c3ccc(NC(=O)CCN4CCCC4)cc3nc3cc(NC(=O)CCN4CCCC4)ccc23)cc1", "viability, T/C": 90.8}
    ]},
    {"test_system": "454973-116-R2-J3-PDC spheroids, viability, % test/control", "assay": "Anticancer human tumor 454973-116-R2-J3-PDC cell line growth inhibition [GQUAD]", "conditions": "second compound 3.16 µM; first compound 0.00316 µM; stronger effect = lower value; spheroids with HUVEC and MSC", "procedure,_shortened": "as §1", "units": {"viability, T/C": "%"}, "values": [
      {"smiles": "Cn1ncnc1[C@H]1c2n[nH]c(=O)c3cc(F)cc(c23)N[C@@H]1c1ccc(F)cc1", "note": "+ CN(C)c1ccc(Nc2c3ccc(NC(=O)CCN4CCCC4)cc3nc3cc(NC(=O)CCN4CCCC4)ccc23)cc1", "viability, T/C": 89.9}
    ]},
    {"test_system": "454973-116-R2-J3-PDC spheroids, viability, % test/control", "assay": "Anticancer human tumor 454973-116-R2-J3-PDC cell line growth inhibition [GQUAD]", "conditions": "second compound 3.16 µM; first compound 0.00999 µM; stronger effect = lower value; spheroids with HUVEC and MSC", "procedure,_shortened": "as §1", "units": {"viability, T/C": "%"}, "values": [
      {"smiles": "Cn1ncnc1[C@H]1c2n[nH]c(=O)c3cc(F)cc(c23)N[C@@H]1c1ccc(F)cc1", "note": "+ CN(C)c1ccc(Nc2c3ccc(NC(=O)CCN4CCCC4)cc3nc3cc(NC(=O)CCN4CCCC4)ccc23)cc1", "viability, T/C": 80.8}
    ]},
    {"test_system": "454973-116-R2-J3-PDC spheroids, viability, % test/control", "assay": "Anticancer human tumor 454973-116-R2-J3-PDC cell line growth inhibition [GQUAD]", "conditions": "second compound 3.16 µM; first compound 0.0316 µM; stronger effect = lower value; spheroids with HUVEC and MSC", "procedure,_shortened": "as §1", "units": {"viability, T/C": "%"}, "values": [
      {"smiles": "C=CC(=O)N1CCN(c2nc(=O)n(-c3c(C)ccnc3C(C)C)c3nc(-c4c(O)cccc4F)c(F)cc23)C(C)C1", "note": "(stereo unspecified) + CN(C)c1ccc(Nc2c3ccc(NC(=O)CCN4CCCC4)cc3nc3cc(NC(=O)CCN4CCCC4)ccc23)cc1", "viability, T/C": 97.7},
      {"smiles": "CC1COCCN1c1cc(C2(O)CC3CCC(C2)O3)c2cnn(-c3ccn[nH]3)c2n1", "note": "(stereo unspecified) + CN(C)c1ccc(Nc2c3ccc(NC(=O)CCN4CCCC4)cc3nc3cc(NC(=O)CCN4CCCC4)ccc23)cc1", "viability, T/C": 84},
      {"smiles": "Cc1cccc(N(C)C(=O)C2C(O)CCN2c2nc(C)cc(C(F)(F)F)c2C#N)c1", "note": "(stereo unspecified) + CN(C)c1ccc(Nc2c3ccc(NC(=O)CCN4CCCC4)cc3nc3cc(NC(=O)CCN4CCCC4)ccc23)cc1", "viability, T/C": 92.5},
      {"smiles": "Cn1ncnc1[C@H]1c2n[nH]c(=O)c3cc(F)cc(c23)N[C@@H]1c1ccc(F)cc1", "note": "+ CN(C)c1ccc(Nc2c3ccc(NC(=O)CCN4CCCC4)cc3nc3cc(NC(=O)CCN4CCCC4)ccc23)cc1", "viability, T/C": 62.8}
    ]}
  ]
}
